Assay results from ChEMBL document CHEMBL4813997, “Discovery of 3-aryl substituted benzoxaboroles as broad-spectrum inhibitors of serine- and metallo-β-lactamases” (Bioorg Med Chem Lett, 2021).
Converted amounts (≈) assume the structure as drawn.

Legend:
[1] = Inhibition of bacterial Beta-lactamase KPC-2 (29 - 289) (unknown origin) expressed in Escherichia coli Transetta (DE3); set-up: species or system Bacteria
Beta-lactamase TEM = Beta-lactamase TEM (Bacteria, UniProt P62593); experiment: Inhibition of bacterial Beta-lactamase TEM-1 (24 - 286) (unknown origin) expressed in Escherichia coli Transetta (DE3)
[2] = Inhibition of bacterial Beta-lactamase AmpC (20 - 377) (unknown origin) expressed in Escherichia coli Transetta (DE3); set-up: species or system Bacteria
[3] = Inhibition of bacterial Beta-lactamase OXA-48 (1 - 265) (unknown origin) expressed in Escherichia coli Transetta (DE3); set-up: species or system Bacteria
[4] = Inhibition of bacterial New Delhi metallo-beta-lactamase 1 (1- 270) (unknown origin) expressed in Escherichia coli Transetta (DE3); set-up: species or system Bacteria
[5] = Inhibition of bacterial Beta-lactamase VIM-1 (27 - 266) (unknown origin) expressed in Escherichia coli Transetta (DE3); set-up: species or system Bacteria
[6] = Inhibition of bacterial Beta-lactamase SFH-1 (3 - 234) expressed in Escherichia coli Transetta (DE3); set-up: species or system Bacteria
Klebsiella pneumoniae [7] = experiment: Potentiation of meropenem-induced antibacterial activity against AmpC/TEM-1 producing Klebsiella pneumoniae C692 assessed as MIC of meropenem at 100 uM; assay type: functional
Escherichia coli [8] = experiment: Potentiation of meropenem-induced antibacterial activity against KPC-2 producing Escherichia coli BAA2340 assessed as MIC of meropenem at 100 uM; assay type: functional
Escherichia coli [9] = experiment: Potentiation of meropenem-induced antibacterial activity against KPC-2 producing Escherichia coli 11119 assessed as MIC of meropenem at 100 uM; assay type: functional
Klebsiella pneumoniae [10] = experiment: Potentiation of meropenem-induced antibacterial activity against AmpC/TEM-1 producing Klebsiella pneumoniae C692 assessed as MIC of meropenem at 10 uM; assay type: functional
Escherichia coli [11] = experiment: Potentiation of meropenem-induced antibacterial activity against KPC-2 producing Escherichia coli BAA2340 assessed as MIC of meropenem at 10 uM; assay type: functional
Escherichia coli [12] = experiment: Potentiation of meropenem-induced antibacterial activity against KPC-2 producing Escherichia coli 11119 assessed as MIC of meropenem at 10 uM; assay type: functional
HEK-293T = experiment: Cytotoxicity against human HEK293T cells assessed as reduction in cell viability at 10 to 100 uM; assay type: cell-based; settings: dose 10-100 µM
Beta-lactamase = Beta-lactamase (Klebsiella pneumoniae, UniProt Q93LQ9); experiment: Inhibition of Klebsiella pneumoniae KPC-2
Escherichia coli [13] = experiment: Antibacterial activity against Escherichia coli ATCC 25922; assay type: functional
Klebsiella pneumoniae [14] = experiment: Antibacterial activity against AmpC/TEM-1 producing Klebsiella pneumoniae C692; assay type: functional
Escherichia coli [15] = experiment: Antibacterial activity against KPC-2 producing Escherichia coli BAA2340; assay type: functional
Escherichia coli [16] = experiment: Antibacterial activity against KPC-2 producing Escherichia coli 11119; assay type: functional

Chain of Beta-lactamase TEM (P62593 whole entry): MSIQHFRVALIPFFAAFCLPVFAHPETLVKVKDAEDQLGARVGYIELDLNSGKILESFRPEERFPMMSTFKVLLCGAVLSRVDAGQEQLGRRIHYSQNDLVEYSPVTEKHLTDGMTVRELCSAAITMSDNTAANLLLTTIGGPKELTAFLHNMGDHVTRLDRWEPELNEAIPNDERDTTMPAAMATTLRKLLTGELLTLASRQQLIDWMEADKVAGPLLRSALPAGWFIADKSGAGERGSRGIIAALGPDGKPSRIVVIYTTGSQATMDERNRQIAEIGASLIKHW
Chain of Beta-lactamase (Q93LQ9 whole entry): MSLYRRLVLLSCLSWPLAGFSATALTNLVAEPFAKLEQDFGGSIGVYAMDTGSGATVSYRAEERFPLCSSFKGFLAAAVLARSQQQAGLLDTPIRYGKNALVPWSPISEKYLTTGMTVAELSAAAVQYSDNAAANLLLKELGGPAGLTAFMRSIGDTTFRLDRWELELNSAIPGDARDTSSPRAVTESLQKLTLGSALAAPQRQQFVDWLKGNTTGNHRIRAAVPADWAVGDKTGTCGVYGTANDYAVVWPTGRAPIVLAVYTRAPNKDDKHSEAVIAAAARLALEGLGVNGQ

Row | IC50 (Beta-lactamase) [µM] | Structure (SMILES) | IC50 [1] [µM] | IC50 (Beta-lactamase TEM) [µM] | IC50 [2] [µM] | IC50 [3] [µM] | IC50 [4] [µM] | IC50 [5] [µM] | IC50 [6] [µM] | MIC (Klebsiella pneumoniae [7]) [µg/mL] | MIC (Escherichia coli [8]) [µg/mL] | MIC (Escherichia coli [9]) [µg/mL] | MIC (Klebsiella pneumoniae [10]) [µg/mL] | MIC (Escherichia coli [11]) [µg/mL] | MIC (Escherichia coli [12]) [µg/mL] | Activity (HEK-293T) | MIC (Escherichia coli [13]) [µg/mL] | MIC (Klebsiella pneumoniae [14]) [µg/mL] | MIC (Escherichia coli [15]) [µg/mL] | MIC (Escherichia coli [16]) [µg/mL]
1 | – | CNc1ccc(C2OB(O)c3cccc(F)c32)cc1 (stereo unspecified) | 2.41 | 37.9 | 15.3 | 6.49 | 51.4 | > 100 | 1.15 | – | – | – | – | – | – | – | – | – | – | –
2 | – | OB1OC(c2c[nH]c3ccc(Br)cc23)c2ccc(F)cc21 (stereo unspecified) | > 100 | > 100 | > 100 | > 100 | > 100 | > 100 | > 100 | – | – | – | – | – | – | – | – | – | – | –
3 | – | CN(C)c1ccc(C2OB(O)c3ccc(Cl)cc32)cc1 (stereo unspecified) | 0.086 | 1.54 | 22.7 | 2.34 | 9.05 | > 100 | 3.81 | > 128 | 0.5 | 8 | > 128 | 2 | 32 | Non-Toxic | – | – | – | –
4 | – | CN(C)c1ccc(C2OB(O)c3cccc(F)c32)cc1 (stereo unspecified) | 1.91 | 20.7 | 15.1 | 7.48 | 25.6 | > 100 | 1.83 | – | – | – | – | – | – | – | – | – | – | –
5 | – | CN(C)c1ccc(C2OB(O)c3cc(Cl)ccc32)cc1 (stereo unspecified) | 0.81 | 4.34 | 3.6 | 1.96 | 61.7 | > 100 | 0.47 | – | – | – | – | – | – | – | – | – | – | –
6 | – | OB1OC(c2c[nH]c3ccc(Cl)cc23)c2ccccc21 (stereo unspecified) | 0.2 | > 100 | 5.66 | > 100 | > 100 | – | 18.6 | – | – | – | – | – | – | – | – | – | – | –
7 | – | OB1OC(c2ccc(N3CCCCC3)cc2)c2ccccc21 (stereo unspecified) | 0.51 | 33 | 32.2 | 3.44 | 11.7 | 18.4 | 5.27 | – | – | – | – | – | – | – | – | – | – | –
8 | – | OB1OC(c2c[nH]c3ccc(F)cc23)c2ccccc21 (stereo unspecified) | 0.36 | 88.8 | 7.27 | > 100 | > 100 | 62.5 | 6.58 | – | – | – | – | – | – | – | – | – | – | –
9 | – | OB1OC(c2c[nH]c3ccc(OCc4ccccc4)cc23)c2ccccc21 (stereo unspecified) | > 100 | > 100 | > 100 | > 100 | > 100 | > 100 | > 100 | – | – | – | – | – | – | – | – | – | – | –
10 | – | OB1OC(c2c[nH]c3ccc(Br)cc23)c2ccccc21 (stereo unspecified) | 9.43 | > 100 | 25.9 | > 100 | 24 | 13.1 | 14.9 | – | – | – | – | – | – | – | – | – | – | –
11 | – | OB1OC(c2ccccc2)c2ccccc21 (stereo unspecified) | 1 | 4.46 | 29.2 | 8.67 | 89 | 73.8 | 3.56 | – | – | – | – | – | – | – | – | – | – | –
12 | – | COc1ccc2c(c1)C(c1ccc(N(C)C)cc1)OB2O (stereo unspecified) | 0.18 | 1.54 | 11.4 | 2.93 | 38.4 | > 100 | 4.23 | – | – | – | – | – | – | – | – | – | – | –
13 | – | Cc1ccc2[nH]cc(C3OB(O)c4ccccc43)c2c1 (stereo unspecified) | 0.22 | > 100 | 8.52 | > 100 | 68 | 16.2 | 19.4 | – | – | – | – | – | – | – | – | – | – | –
14 | – | OB1OC(c2cn(Cc3ccccc3)c3ccccc23)c2ccccc21 (stereo unspecified) | > 100 | > 100 | > 100 | > 100 | 15.9 | 10.6 | 9.6 | – | – | – | – | – | – | – | – | – | – | –
15 | – | CN(C)c1ccc(C2OB(O)c3ccc(F)cc32)cc1 (stereo unspecified) | 0.35 | 5.68 | 39.3 | 3.58 | 11.2 | > 100 | 3.64 | – | – | – | – | – | – | – | – | – | – | –
16 | – | CNc1ccc(C2OB(O)c3ccccc32)cc1 (stereo unspecified) | 0.1 | 3.2 | 13.9 | 2.37 | 57.4 | 26.4 | 3.02 | – | – | – | – | – | – | – | – | – | – | –
17 | – | OB1OC(c2c[nH]c3ccccc23)c2ccccc21 (stereo unspecified) | 2.58 | > 100 | 3.66 | > 100 | 6.04 | 15.2 | 8.5 | – | – | – | – | – | – | – | – | – | – | –
18 | – | CN(C)c1ccc(C2OB(O)c3ccccc32)cc1 (stereo unspecified) | 0.18 | 0.73 | 8.27 | 2.41 | 8.44 | 39.4 | 2.52 | – | – | – | – | – | – | – | – | – | – | –
19 | – | OB1OC(c2c[nH]c3ccccc23)c2c(F)cccc21 (stereo unspecified) | 6.56 | > 100 | 10.8 | > 100 | 25.4 | 89.7 | 2.17 | – | – | – | – | – | – | – | – | – | – | –
20 | – | OB1OC(c2cccs2)c2ccccc21 (stereo unspecified) | 0.41 | 6.97 | 18.7 | 5.45 | 22.4 | 17.4 | 2.47 | > 128 | 0.5 | 2 | > 128 | 2 | 32 | Non-Toxic | – | – | – | –
21 | – | CN(C)c1ccc(C2OB(O)c3cc4c(cc32)OCO4)cc1 (stereo unspecified) | 0.76 | 1.15 | 5.23 | 6.4 | 16.6 | 51 | 2.77 | – | – | – | – | – | – | – | – | – | – | –
22 | – | NC(=O)[C@@H]1CC[C@@H]2CN1C(=O)N2OS(=O)(=O)O [AVIBACTAM] | 0.0037 | – | 0.024 | 0.17 | > 100 | > 100 | 0.025 | – | – | – | – | – | – | – | – | – | – | –
23 | 0.67 | N#Cc1ccc(Oc2ccc3c(c2)COB3O)cc1 [CRISABOROLE] | – | – | – | – | – | – | – | – | – | – | – | – | – | – | – | – | – | –
24 | – | C[C@@H](O)[C@H]1C(=O)N2C(C(=O)O)=C(S[C@@H]3CN[C@H](C(=O)N(C)C)C3)[C@H](C)[C@H]12 [MEROPENEM] | – | – | – | – | – | – | – | – | – | – | – | – | – | – | 0.06 (≈ 0.156 µM) | > 128 | 16 (≈ 41.7 µM) | 64 (≈ 167 µM)
